{
  "source": "patent US8138227B2",
  "about": "“Method for inhibiting or reversing non-enzymatic glycation” (Trustees of Dartmouth College, priority 2006, dated 2012)",
  "assay": "Transglycation of glucose-ethylamine with thiolamines followed by 13C NMR",
  "details": "50 mM thiolamine, 20 mM G-E; for conversion of G-E to thiazolidine (glucosyl-cysteamine / glucosyl-penicillamine): 250 mM HEPES pH 7.25, room temperature; for potency as transglycating agent (kinetics of decomposition of G-E and formation of thiazolidines): pH 7.25, room temperature",
  "experimental": "The reaction mixture (0.5 ml in a 5 mm NMR tube) included 250 mM HEPES, pH 7.25, 10% D2O (for the purpose of locking the NMR magnetic field) and 50 mM concentration of a compound of interest such as cysteine. The reaction was performed at room temperature and it was initiated by adding an aliquot of G-E to produce a final concentration of 20 mM at which time consecutive NMR spectra of 20-minute duration were acquired using 580 scans, 60° pulses and an interpulse delay of 2.065 seconds.\nNMR spectra were obtained on the VARIAN UNITY-300 and -500 MHz machines. Spectra were analyzed using information from model compounds and chemical shift data known in the art (Neglia, et al. (1985) J. Biol. Chem. 260:5406-10; Mossine, et al. (1994) Carbohyd. Res. 262:257-70).\nStudies of reactions involving Schiff bases are intrinsically difficult as these compounds are labile at physiological pH. As such, to unambiguously follow Shiff base reactions in real-time, ^13C NMR spectroscopy was employed. To utilize this technique efficiently, glucose-ethylamine (G-E) was synthesized and labeled with ^13C at the C-1 position of the glucose moiety and with ^15N at the amino group of the ethylamine as a model compound of glucosyl-lysine.\nDue to the spin-spin coupling between the nuclei of neighboring ^15N and ^13C atoms, the ^13C-labeled C-1 peak of glucose appeared in the ^13C NMR spectrum as a doublet resonating at 90.00 ppm. The unique signature doublet in the ^13C NMR spectrum of G-E, its chemical shift as well as the distinct ^13C chemical shifts of the other glucose-nucleophile adducts allowed for real-time observation reactions between G-E and various nucleophiles since cleavage of the ethylamine-glucose bond results in loss of the G-E doublet and the concomitant formation of new peaks corresponding to the new glucose-nucleophile adducts, e.g., the endproducts of transglycation of G-E, with glycine, taurine, spermidine and N-acetylcysteine. Because all of these transglycation products are labile at physiological pHs, the reactions were carried at a slightly alkaline pH of 8.5 to stabilize the reactants and products sufficiently so they could be followed by NMR over a span of several hours.",
  "data": [
    {"compound": "NCCS", "note": "[cysteamine]", "values": [
      {"measurement": "conversion of G-E to thiazolidine (glucosyl-cysteamine / glucosyl-penicillamine)", "result": 80, "unit": "%"},
      {"measurement": "potency as transglycating agent (kinetics of decomposition of G-E and formation of thiazolidines)", "result": "much more potent"}
    ]},
    {"compound": "CC(C)(S)[C@@H](N)C(=O)O", "note": "[penicillamine]", "values": [
      {"measurement": "conversion of G-E to thiazolidine (glucosyl-cysteamine / glucosyl-penicillamine)", "result": 70, "unit": "%"},
      {"measurement": "potency as transglycating agent (kinetics of decomposition of G-E and formation of thiazolidines)", "result": "much more potent"}
    ]},
    {"compound": "N[C@@H](CS)C(=O)NCC(=O)O", "note": "[cys-gly]", "values": [
      {"measurement": "potency as transglycating agent (kinetics of decomposition of G-E and formation of thiazolidines)", "result": "reasonably good transglycating agents"}
    ]},
    {"compound": "N[C@@H](CS)C(=O)O", "note": "[cysteine]", "values": [
      {"measurement": "potency as transglycating agent (kinetics of decomposition of G-E and formation of thiazolidines)", "result": "reasonably good transglycating agents"}
    ]}
  ]
}
